Converted amounts (≈) assume the structure as drawn.
Tests used:
Coptotermes formosanus [1] = experiment: Insecticidal activity against Coptotermes formosanus assessed as mortality at 0.00025 g/m'2 after 48 hr; assay type: functional
Coptotermes formosanus [2] = experiment: Insecticidal activity against Coptotermes formosanus assessed as mortality; assay type: functional
Coptotermes formosanus [3] = experiment: Insecticidal activity against Coptotermes formosanus assessed as mortality at 0.00005 g/m'2 after 48 hr; assay type: functional
Coptotermes formosanus [4] = experiment: Insecticidal activity against Coptotermes formosanus assessed as mortality at 0.00005 g/m'2 after 24 hr; assay type: functional
Coptotermes formosanus [5] = experiment: Insecticidal activity against Coptotermes formosanus assessed as mortality at 0.00010 g/m'2 after 24 hr; assay type: functional
Coptotermes formosanus [6] = experiment: Insecticidal activity against Coptotermes formosanus assessed as mortality at 0.00001 g/m'2 after 24 hr; assay type: functional
Coptotermes formosanus [7] = experiment: Insecticidal activity against Coptotermes formosanus assessed as mortality at 0.00025 g/m'2 after 24 hr; assay type: functional
Coptotermes formosanus [8] = experiment: Insecticidal activity against Coptotermes formosanus assessed as mortality at 0.00050 g/m'2 after 48 hr; assay type: functional
Coptotermes formosanus [9] = experiment: Insecticidal activity against Coptotermes formosanus assessed as mortality at 0.00050 g/m'2 after 24 hr; assay type: functional
Coptotermes formosanus [10] = experiment: Insecticidal activity against Coptotermes formosanus assessed as mortality at 0.00010 g/m'2 after 48 hr; assay type: functional
Tyrophagus putrescentiae [11] = experiment: Insecticidal activity against Tyrophagus putrescentiae assessed as mortality at 0.80 g/m'2 after 24 hr by clip method; assay type: functional
Coptotermes formosanus [12] = experiment: Insecticidal activity against Coptotermes formosanus assessed as mortality at 0.020 g/m'2 after 24 hr; assay type: functional
Dermatophagoides farinae [13] = experiment: Insecticidal activity against Dermatophagoides farinae assessed as mortality at 0.05 g/m'2 after 24 hr by clip method; assay type: functional
Dermatophagoides farinae [14] = experiment: Insecticidal activity against Dermatophagoides farinae assessed as mortality at 0.80 g/m'2 after 24 hr by clip method; assay type: functional
Colletotrichum lagenaria = experiment: Antifungal activity against Colletotrichum lagenaria after 15 days by agar dilution method; assay type: functional; details: 360 h
Coptotermes formosanus [15] = experiment: Insecticidal activity against Coptotermes formosanus assessed as mortality at 1 g/m'2 after 24 hr; assay type: functional
Coptotermes formosanus [16] = experiment: Insecticidal activity against Coptotermes formosanus assessed as mortality at 0.010 g/m'2 after 24 hr; assay type: functional
Coptotermes formosanus [17] = experiment: Insecticidal activity against Coptotermes formosanus assessed as mortality at 0.020 g/m'2 after 48 hr; assay type: functional
Dermatophagoides farinae [18] = experiment: Insecticidal activity against Dermatophagoides farinae assessed as mortality at 0.20 g/m'2 after 24 hr by clip method; assay type: functional
Phomopsis obscurans = experiment: Antifungal activity against Phomopsis obscurans MAFF 744018 after 15 days by agar dilution method; assay type: functional; details: Paraphomopsis obscurans, MAFF 744018, 360 h
Tyrophagus putrescentiae [19] = experiment: Insecticidal activity against Tyrophagus putrescentiae assessed as mortality at 0.40 g/m'2 after 24 hr by clip method; assay type: functional
Tyrophagus putrescentiae [20] = experiment: Insecticidal activity against Tyrophagus putrescentiae assessed as mortality at 0.60 g/m'2 after 24 hr by clip method; assay type: functional
Dermatophagoides farinae [21] = experiment: Insecticidal activity against Dermatophagoides farinae assessed as mortality after 24 hr by clip method; assay type: functional
Dermatophagoides farinae [22] = experiment: Insecticidal activity against Dermatophagoides farinae assessed as mortality at 0.60 g/m'2 after 24 hr by clip method; assay type: functional
Dermatophagoides farinae [23] = experiment: Insecticidal activity against Dermatophagoides farinae assessed as mortality at 0.03 g/m'2 after 24 hr by clip method; assay type: functional
Carboxypeptidase A1 = biological target: T1, Carboxypeptidase A1 (Bos taurus, UniProt P00730); experiment: Inhibition of Bos taurus (bovine) pancrease carboxypeptidase A after 15 min
T1 sequence (P00730 whole entry): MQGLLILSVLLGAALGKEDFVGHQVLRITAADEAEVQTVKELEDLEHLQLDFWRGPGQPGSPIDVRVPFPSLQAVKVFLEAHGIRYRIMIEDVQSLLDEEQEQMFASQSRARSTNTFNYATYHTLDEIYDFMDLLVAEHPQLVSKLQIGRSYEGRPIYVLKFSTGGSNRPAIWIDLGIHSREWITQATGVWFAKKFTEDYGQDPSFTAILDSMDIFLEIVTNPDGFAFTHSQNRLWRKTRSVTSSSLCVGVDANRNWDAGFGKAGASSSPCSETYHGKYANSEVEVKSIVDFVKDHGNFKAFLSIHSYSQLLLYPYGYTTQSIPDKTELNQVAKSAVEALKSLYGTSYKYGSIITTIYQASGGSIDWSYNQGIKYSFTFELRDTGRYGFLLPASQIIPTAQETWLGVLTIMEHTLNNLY

Tyrophagus putrescentiae [24] = experiment: Insecticidal activity against Tyrophagus putrescentiae assessed as mortality after 24 hr by clip method; assay type: functional
Dermatophagoides farinae [25] = experiment: Insecticidal activity against Dermatophagoides farinae assessed as mortality at 0.10 g/m'2 after 24 hr by clip method; assay type: functional
Tyrophagus putrescentiae [26] = experiment: Insecticidal activity against Tyrophagus putrescentiae assessed as mortality at 0.20 g/m'2 after 24 hr by clip method; assay type: functional
Coptotermes formosanus [27] = experiment: Insecticidal activity against Coptotermes formosanus assessed as mortality at 0.050 g/m'2 after 48 hr; assay type: functional
Fusarium solani = experiment: Antifungal activity against Fusarium solani IFO 9955 after 15 days by agar dilution method; assay type: functional; details: IFO 9955, 360 h
Thanatephorus cucumeris = experiment: Antifungal activity against Thanatephorus cucumeris IFO 30445 after 15 days by agar dilution method; assay type: functional; details: IFO 30445, 360 h
Coptotermes formosanus [28] = experiment: Insecticidal activity against Coptotermes formosanus assessed as mortality at 0.200 g/m'2 after 24 hr; assay type: functional
Coptotermes formosanus [29] = experiment: Insecticidal activity against Coptotermes formosanus assessed as mortality at 0.050 g/m'2 after 24 hr; assay type: functional
Coptotermes formosanus [30] = experiment: Insecticidal activity against Coptotermes formosanus assessed as mortality at 0.200 g/m'2 after 48 hr; assay type: functional
Thermolysin = biological target: T2, Thermolysin (Bacillus thermoproteolyticus, UniProt P00800); experiment: Inhibition of Bacillus thermoproteolyticus thermolysin after 15 min
T2 sequence (P00800 whole entry): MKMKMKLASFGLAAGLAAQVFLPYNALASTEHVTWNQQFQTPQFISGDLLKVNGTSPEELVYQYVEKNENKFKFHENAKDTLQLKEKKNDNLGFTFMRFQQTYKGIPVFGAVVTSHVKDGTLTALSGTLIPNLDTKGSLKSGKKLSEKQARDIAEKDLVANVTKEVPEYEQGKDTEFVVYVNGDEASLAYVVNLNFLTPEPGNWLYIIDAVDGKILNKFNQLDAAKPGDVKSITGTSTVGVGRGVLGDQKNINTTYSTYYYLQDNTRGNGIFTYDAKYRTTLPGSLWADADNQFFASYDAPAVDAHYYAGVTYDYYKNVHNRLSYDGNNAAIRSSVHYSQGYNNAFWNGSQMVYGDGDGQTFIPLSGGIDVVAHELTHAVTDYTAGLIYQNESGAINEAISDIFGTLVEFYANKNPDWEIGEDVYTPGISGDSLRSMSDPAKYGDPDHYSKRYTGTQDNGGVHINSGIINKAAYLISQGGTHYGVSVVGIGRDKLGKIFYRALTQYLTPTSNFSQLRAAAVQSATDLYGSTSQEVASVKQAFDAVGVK

Tyrophagus putrescentiae [31] = experiment: Insecticidal activity against Tyrophagus putrescentiae assessed as mortality at 1 g/m'2 after 24 hr by clip method; assay type: functional
Coptotermes formosanus [32] = experiment: Insecticidal activity against Coptotermes formosanus assessed as mortality at 0.100 g/m'2 after 24 hr; assay type: functional
Coptotermes formosanus [33] = experiment: Insecticidal activity against Coptotermes formosanus assessed as mortality at 0.010 g/m'2 after 48 hr; assay type: functional
Dermatophagoides farinae [34] = experiment: Insecticidal activity against Dermatophagoides farinae assessed as mortality at 1 g/m'2 after 24 hr by clip method; assay type: functional
Botrytis cinerea = experiment: Antifungal activity against Botryotinia fuckeliana IFO 30915 after 15 days by agar dilution method; assay type: functional; details: IFO 30915, 360 h
[35] = tested on: Colletotrichum orbiculare; experiment: Antifungal activity against Colletotrichum orbiculare MAFF 306518 after 15 days by agar dilution method; assay type: functional; details: MAFF 306518, 360 h
Coptotermes formosanus [36] = experiment: Insecticidal activity against Coptotermes formosanus assessed as mortality at 1 g/m'2 after 48 hr; assay type: functional
Dermatophagoides farinae [37] = experiment: Insecticidal activity against Dermatophagoides farinae assessed as mortality at 0.40 g/m'2 after 24 hr by clip method; assay type: functional
Pythium aphanidermatum = experiment: Antifungal activity against Pythium aphanidermatum IFO 32440 after 15 days by agar dilution method; assay type: functional; details: IFO 32440, 360 h
Collagenase ColG = biological target: T3, Collagenase ColG (Clostridium histolyticum, UniProt Q9X721); experiment: Inhibition of Clostridium histolyticum collagenase after 15 min; set-up: species or system Hathewaya histolytica
T3 sequence (Q9X721 whole entry): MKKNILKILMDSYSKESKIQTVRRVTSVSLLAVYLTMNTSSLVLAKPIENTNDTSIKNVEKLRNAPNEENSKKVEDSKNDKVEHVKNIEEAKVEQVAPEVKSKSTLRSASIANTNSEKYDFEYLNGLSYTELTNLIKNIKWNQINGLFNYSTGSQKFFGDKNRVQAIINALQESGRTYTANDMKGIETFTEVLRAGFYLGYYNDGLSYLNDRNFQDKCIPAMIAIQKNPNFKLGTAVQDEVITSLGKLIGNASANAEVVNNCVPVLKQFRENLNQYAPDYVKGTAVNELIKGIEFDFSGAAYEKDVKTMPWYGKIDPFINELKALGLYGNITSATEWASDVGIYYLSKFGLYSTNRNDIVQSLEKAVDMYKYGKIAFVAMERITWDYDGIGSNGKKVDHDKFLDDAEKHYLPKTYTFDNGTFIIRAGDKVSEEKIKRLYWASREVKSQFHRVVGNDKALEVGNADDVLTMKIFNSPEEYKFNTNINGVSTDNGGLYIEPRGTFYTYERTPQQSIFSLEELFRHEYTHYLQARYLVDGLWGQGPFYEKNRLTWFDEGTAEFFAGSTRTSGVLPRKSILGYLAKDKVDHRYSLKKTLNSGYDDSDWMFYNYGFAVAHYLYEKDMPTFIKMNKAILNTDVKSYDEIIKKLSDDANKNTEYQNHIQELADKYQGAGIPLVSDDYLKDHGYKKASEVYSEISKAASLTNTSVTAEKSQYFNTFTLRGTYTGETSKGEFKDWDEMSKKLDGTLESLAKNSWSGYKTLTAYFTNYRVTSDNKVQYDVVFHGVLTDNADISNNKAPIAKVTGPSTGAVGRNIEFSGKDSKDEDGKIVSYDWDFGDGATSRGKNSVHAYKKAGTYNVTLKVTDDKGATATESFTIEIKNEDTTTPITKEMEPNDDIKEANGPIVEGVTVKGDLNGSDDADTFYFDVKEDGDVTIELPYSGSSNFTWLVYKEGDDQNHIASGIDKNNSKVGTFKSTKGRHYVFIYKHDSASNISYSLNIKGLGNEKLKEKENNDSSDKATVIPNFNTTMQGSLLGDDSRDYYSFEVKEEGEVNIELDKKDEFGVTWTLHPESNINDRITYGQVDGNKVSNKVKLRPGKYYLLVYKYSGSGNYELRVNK

Coptotermes formosanus [38] = experiment: Insecticidal activity against Coptotermes formosanus assessed as mortality at 0.100 g/m'2 after 48 hr; assay type: functional

CCOP(=S)(OCC)Oc1nc(Cl)c(Cl)cc1Cl [CHLORPYRIFOS]
mortality (Coptotermes formosanus [1]): 100%
LC50 (Coptotermes formosanus [2]): 0.00016 g/m2
mortality (Coptotermes formosanus [3]): 40%
mortality (Coptotermes formosanus [4]): 10%
mortality (Coptotermes formosanus [5]): 25%
mortality (Coptotermes formosanus [6]): 0%
mortality (Coptotermes formosanus [7]): 60%
mortality (Coptotermes formosanus [8]): 100%
mortality (Coptotermes formosanus [9]): 100%
mortality (Coptotermes formosanus [10]): 75%

O=c1cccccc1O [TROPOLONE]
mortality (Tyrophagus putrescentiae [11]): 100%
mortality (Coptotermes formosanus [12]): 37.5%
LC50 (Coptotermes formosanus [2]): 0.04 g/m2
mortality (Dermatophagoides farinae [13]): 7.5%
mortality (Dermatophagoides farinae [14]): 100%
MIC (Colletotrichum lagenaria): 12 µg/mL (≈ 98.3 µM)
mortality (Coptotermes formosanus [15]): 100%
mortality (Coptotermes formosanus [16]): 0%
mortality (Coptotermes formosanus [17]): 57.9%
mortality (Dermatophagoides farinae [18]): 95.7%
MIC (Phomopsis obscurans): 12 µg/mL (≈ 98.3 µM)
mortality (Tyrophagus putrescentiae [19]): 55.8%
mortality (Tyrophagus putrescentiae [20]): 79.8%
LC50 (Dermatophagoides farinae [21]): 0.08 g/m2
mortality (Dermatophagoides farinae [22]): 100%
mortality (Dermatophagoides farinae [23]): 0%
IC50 (Carboxypeptidase A1): 2.73 µM
LC50 (Tyrophagus putrescentiae [24]): 0.11 g/m2
mortality (Dermatophagoides farinae [25]): 24.5%
mortality (Tyrophagus putrescentiae [26]): 9.6%
mortality (Coptotermes formosanus [27]): 77.8%
MIC (Fusarium solani): 25 µg/mL (≈ 205 µM)
MIC (Thanatephorus cucumeris): 12 µg/mL (≈ 98.3 µM)
mortality (Coptotermes formosanus [28]): 100%
mortality (Coptotermes formosanus [29]): 45%
mortality (Coptotermes formosanus [30]): 100%
IC50 (Thermolysin): 71.1 µM
mortality (Tyrophagus putrescentiae [31]): 100%
mortality (Coptotermes formosanus [32]): 78.9%
mortality (Coptotermes formosanus [33]): 0%
mortality (Dermatophagoides farinae [34]): 100%
MIC (Botrytis cinerea): 25 µg/mL (≈ 205 µM)
MIC [35]: 12 µg/mL (≈ 98.3 µM)
mortality (Coptotermes formosanus [36]): 100%
mortality (Dermatophagoides farinae [37]): 100%
MIC (Pythium aphanidermatum): 6 µg/mL (≈ 49.1 µM)
IC50 (Collagenase ColG): 46.8 µM
mortality (Coptotermes formosanus [38]): 89.5%

c1cnc2c(c1)ccc1cccnc12 [PHENANTHROLINE]
IC50 (Carboxypeptidase A1): 422 µM
IC50 (Thermolysin): 360 µM
IC50 (Collagenase ColG): 185 µM
